Results reported in patent US20230256049A1, “MATERIALS AND METHODS FOR THE PREVENTION AND TREATMENT OF VIRAL RESPIRATORY DISEASES” (priority 2020, published 2023).
Like-named read-outs stand apart in the source and are kept apart here. Where a SMILES comes first, the peptide text is derived from it. [ ]: non-standard residue; d: D form.

How the values were obtained:
[1] = test system: SARS-CoV-2 (2019-nCoV/USA-WA1/2020 strain); details: VERO E6 (FIG. 5C)
[2] = test system: HIV-1 (primary R5 JR-CSF); assay: HIV-1 in vitro model, HeLa TZM reporter cells (alanine scan); assay type: cell-based; details: β-galactosidase at 48 h
[3] = test system: SARS-CoV-2 (2019-nCoV/USA-WA1/2020 strain)
SARS-CoV-2 = details: cited from earlier work; for treatment outcome in SARS-CoV-2 / COVID-19 patients: remdesivir: double-blind, randomized, placebo-controlled trial in hospitalized adults; for patient morbidity risk: treatment of SARS-CoV-2

Compound: CC[C@H](C)[C@H](NC(=O)[C@H](CC(=O)O)NC(=O)[C@H](CCCNC(=N)N)NC(=O)[C@H](CC(C)C)NC(=O)[C@H](Cc1c[nH]c2ccccc12)NC(=O)[C@@H](N)CO)C(=O)N[C@@H](Cc1c[nH]c2ccccc12)C(=O)N[C@@H](CC(=O)O)C(=O)N[C@@H](Cc1c[nH]c2ccccc12)C(=O)N[C@H](C(=O)N[C@@H](CS)C(=O)N[C@@H](CCC(=O)O)C(=O)N[C@H](C(=O)N[C@@H](CC(C)C)C(=O)N[C@@H](CO)C(=O)N[C@@H](CC(=O)O)C(=O)N[C@@H](Cc1ccccc1)C(=O)N[C@@H](CCCCN)C(=O)O)C(C)C)[C@@H](C)CC [Peptide 346-001, SWLRDIWDWICEVLSDFK] (H-SWLRDIWDWICEVLSDFK-OH; N-terminus and C-terminus assumed)
- reduction on viral copy numbers ([1]; 50 μM dosing concentration): > 5 orders of magnitude
- reduction on viral copy numbers ([1]; 125 μM dosing concentration): > 7 orders of magnitude
- antiviral activity against HIV-1 (in vitro HIV-1 inhibition) [2]: effective against HIV-1

Compound: CC[C@@H](C)[C@@H](NC(=O)[C@@H](CC(=O)O)NC(=O)[C@@H](CCCNC(=N)N)NC(=O)[C@@H](CC(C)C)NC(=O)[C@@H](Cc1c[nH]c2ccccc12)NC(=O)[C@H](N)CO)C(=O)N[C@H](Cc1c[nH]c2ccccc12)C(=O)N[C@H](CC(=O)O)C(=O)N[C@H](Cc1c[nH]c2ccccc12)C(=O)N[C@@H](C(=O)N[C@H](CS)C(=O)N[C@H](CCC(=O)O)C(=O)N[C@@H](C(=O)N[C@H](CC(C)C)C(=O)N[C@H](CO)C(=O)N[C@H](CC(=O)O)C(=O)N[C@H](Cc1ccccc1)C(=O)N[C@H](CCCCN)C(=O)O)C(C)C)[C@H](C)CC [Peptide 346-002, swlrdiwdwicevlsdfk] (H-[dS][dW][dL][dR][dD][dI][dW][dD][dW][dI][dC][dE][dV][dL][dS][dD][dF][dK]-OH; N-terminus and C-terminus assumed)
- EC50 ([3]; 2019-nCoV/USA-WA1/2020 strain, 48 h): 13 µM

Compound: CC[C@H](C)[C@H](NC(=O)[C@H](CC(C)C)NC(=O)[C@H](CC(=O)O)NC(=O)[C@@H](NC(=O)[C@H](Cc1c[nH]c2ccccc12)NC(=O)[C@H](CC(=O)O)NC(=O)[C@H](CCCNC(=N)N)NC(=O)[C@H](Cc1c[nH]c2ccccc12)NC(=O)[C@@H](NC(=O)[C@@H](N)CO)[C@@H](C)CC)C(C)C)C(=O)N[C@@H](CS)C(=O)N[C@@H](CCC(=O)O)C(=O)N[C@@H](Cc1ccccc1)C(=O)N[C@@H](CC(C)C)C(=O)N[C@@H](CO)C(=O)N[C@@H](CC(=O)O)C(=O)N[C@@H](Cc1c[nH]c2ccccc12)C(=O)N[C@@H](CCCCN)C(=O)O [Peptide 346-007, SIWRDWVDLICEFLSDWK] (H-SIWRDWVDLICEFLSDWK-OH; N-terminus and C-terminus assumed)
- potency relative to the other peptides tested [3]: ca. double the potency of the other peptides tested

Compound: CCN(CC)CCCC(C)Nc1ccnc2cc(Cl)ccc12 (stereo not drawn) [chloroquine]
- treatment outcome in SARS-CoV-2 / COVID-19 patients (SARS-CoV-2): failed
- patient morbidity risk (SARS-CoV-2): increased patient morbidity risk

Compound: CCN(CCO)CCCC(C)Nc1ccnc2cc(Cl)ccc12 (stereo not drawn) [hydroxychloroquine]
- treatment outcome in SARS-CoV-2 / COVID-19 patients (SARS-CoV-2): failed
- patient morbidity risk (SARS-CoV-2): increased patient morbidity risk
